# Laboratory results published in patent US20250171460A1, “INDUCERS OF KLF2 AND METHODS OF USE THEREOF” (Riparian Pharmaceuticals, Inc., priority 2022, published 2025).
# Tested on: primary human endothelial cells expressing luciferase under the control of the KLF2 promoter
# Test: KLF2 Induction Cell Based Bioassay (luciferase reporter)
# Details: Homo sapiens, Endothelial cell, 24 h, KLF2 promoter luciferase, 24 hours, 11-point concentration response; read-out: Activity Range (EC50)
# Description: In endothelial cell culture media, a stock of the highest working concentration was made at no more than 1% DMSO vehicle. The working stock was then serially diluted 1:2 to make an 11-point concentration response curve. Included in the 96-well plate were 2 reference compounds with known potencies. A DMSO column was included in the 96-well plate at the highest percent vehicle of the working stocks. The 96-well cell culture plate of primary human endothelial cells expressing luciferase under the control of the KLF2 promoter was dosed with 200 μL per well of the dilution series as well as the DMSO control column. The assay plate was incubated at 37° C. for 24 hours. The supernatant was collected at 24 hours.
# 20 μL of the supernatant was then placed in a 384-well plate with optical duplicates. The corners of the plate received 20 μL of the Gaussia Luciferase Enzyme positive control, as well as 20 μL of the 50 μM Coelenterizine substrate. The plate read is then calibrated using the control, and read using a Molecular Devices SpectraMax iD5, providing luminescence in relative light units (RLU). The plate reader injected 20 μL of the 50 μM Coelenterizine substrate immediately before taking the RLU measurement for each well.
# The sample signals were then normalized to the average signal of the DMSO column, as well as to the maximum signal of one of the reference compounds, as shown in the equations below: […]
# The EC50 of each compound is then defined as when the concentration response curve passes 0.5.
row,SMILES,EC50
1,COc1cccc(C#N)c1CNC(=O)C1(C)COc2c(oc3cc(C(=O)NC4CCC4)ccc23)C(=O)N1[C@H]1C[C@@H](OC)C1 (stereo partly drawn) [Example 56],51 to 500 nM
2,COCCN1C(=O)c2oc3ccccc3c2OCC1(C)C(=O)NCc1c(F)cc(Cl)cc1OC (stereo not drawn) [Example 16],501 to 5000 nM
3,COCCN1C(=O)c2oc3cc(-c4cncs4)ccc3c2OCC1(C)C(=O)NCc1ccccc1OC (stereo not drawn) [Example 100],51 to 500 nM
4,COCCN1C(=O)c2oc3cc(C(=O)NC4CCC4)ccc3c2OCC1(C)C(=O)NCc1c(C#N)cccc1OC (stereo not drawn) [Example 90],≤ 50 nM
5,C/C=C/CN1C(=O)c2oc3ccccc3c2OCC1(C)C(=O)NCc1ccccc1OC (stereo not drawn) [Example 9],501 to 5000 nM
6,"COc1cccc(F)c1CNC(=O)[C@@]1(C)COc2c(oc3ccc(Cl)cc23)C(=O)N1CC(=O)N(C)C (single isomer, unassigned) [Example 107]",51 to 500 nM
7,COc1cccc(Cl)c1CNC(=O)C1(C)COc2c(oc3cc(C(=O)NC4CCC4)ccc23)C(=O)N1CC1CC1 (stereo not drawn) [Example 87],≤ 50 nM
8,"COc1cccc(F)c1CNC(=O)C1(C)COc2c(oc3cc(-c4ncco4)cnc23)C(=O)N1CC(=O)N(C)C (stereo not drawn) [Example 124, 4-(2-(dimethylamino)-2-oxoethyl)-N-(2-fluoro-6-methoxybenzyl)-3-methyl-8-(oxazol-2-yl)-5-oxo-2,3,4,5-tetrahydropyrido[2′,3′:4,5]furo[2,3-f][1,4]oxazepine-3-carboxamide]",51 to 500 nM
9,CC=C1CC(N2C(=O)c3oc4ccccc4c3OCC2(C)C(=O)NCc2ccccc2OC)C1 (racemic) [Example 15],501 to 5000 nM
10,COc1ccc(F)cc1CNC(=O)C1(C)COc2c(oc3cc(C(=O)NC4CCC4)ccc23)C(=O)N1CC1CC1 (stereo not drawn) [Example 92],≤ 50 nM
11,"COc1ccccc1CNC(=O)C1(C)COc2c(oc3cc(C(=O)NC4(C)COC4)cnc23)C(=O)N1CC(=O)N(C)C (stereo not drawn) [Example 121, 4-(2-(dimethylamino)-2-oxoethyl)-N3-(2-methoxybenzyl)-3-methyl-N8-(3-methyloxetan-3-yl)-5-oxo-2,3,4,5-tetrahydropyrido[2′,3′:4,5]furo[2,3-f][1,4]oxazepine-3,8-dicarboxamide]",51 to 500 nM
12,COCCN1C(=O)c2oc3ccccc3c2OCC1(C)C(=O)NCc1c(F)cc(F)cc1OC (stereo not drawn) [Example 22],501 to 5000 nM
13,COc1cccc(C#N)c1CNC(=O)C1(C)COc2c(oc3cc(C(=O)NC4(C)COC4)ccc23)C(=O)N1[C@H]1C[C@@H](OC)C1 (stereo partly drawn) [Example 55],51 to 500 nM
14,COc1ccc(F)cc1CNC(=O)C1(C)COc2c(oc3cc(C(=O)NC4(C)COC4)ccc23)C(=O)N1[C@H]1C[C@@H](OC)C1 (stereo partly drawn) [Example 70],51 to 500 nM
15,COc1ccccc1CNC(=O)C1(C)COc2c(oc3ccccc23)C(=O)N1C1CC2(CC2)C1 (stereo not drawn) [Example 14],51 to 500 nM
16,C=C(C)c1ccc2c3c(oc2c1)C(=O)N(CCOC)C(C)(C(=O)NCc1ccccc1OC)CO3 (stereo not drawn) [Example 96],501 to 5000 nM
17,COc1cccc(Cl)c1CNC(=O)C1(C)COc2c(oc3cc(C(=O)NC4CCC4)ccc23)C(=O)N1[C@H]1C[C@@H](OC)C1 (stereo partly drawn) [Example 84],≤ 50 nM
18,"COc1cccnc1CNC(=O)[C@@]1(C)COc2c(oc3cc(-c4ncco4)ccc23)C(=O)N1CC(=O)N(C)C [Example 125, (R)-4-(2-(dimethylamino)-2-oxoethyl)-N-((3-methoxypyridin-2-yl)methyl)-3-methyl-8-(oxazol-2-yl)-5-oxo-2,3,4,5-tetrahydrobenzofuro[2,3-f][1,4]oxazepine-3-carboxamide]",≤ 50 nM
19,COCCN1C(=O)c2oc3ccccc3c2OCC1(C)C(=O)NCc1c(OC)cccc1OC (stereo not drawn) [Example 33],501 to 5000 nM
20,COCCN1C(=O)c2oc3cc(C(=O)NC4CCC4)ccc3c2OCC1(C)C(=O)NCc1cc(F)ccc1OC (stereo not drawn) [Example 75],51 to 500 nM
21,COc1ccccc1CNC(=O)C1(C)COc2c(oc3ccccc23)C(=O)N1CC1(F)CCC1 (stereo not drawn) [Example 2],501 to 5000 nM
22,COCCN1C(=O)c2oc3ccccc3c2OCC1(C)C(=O)NCc1cc(Cl)ccc1OC (stereo not drawn) [Example 23],501 to 5000 nM
23,COCCN1C(=O)c2oc3ccccc3c2OCC1(C)C(=O)NCc1c(Cl)cccc1OC (stereo not drawn) [Example 24],501 to 5000 nM
24,COCCN1C(=O)c2oc3cc(-c4nccs4)ccc3c2OCC1(C)C(=O)NCc1ccccc1OC (stereo not drawn) [Example 101],51 to 500 nM
25,COc1ccc(F)cc1CNC(=O)C1(C)COc2c(oc3cc(C(=O)NC4CCC4)ccc23)C(=O)N1[C@H]1C[C@H](OC)C1 (stereo partly drawn) [Example 80],501 to 5000 nM

row,SMILES,EC50
1,COc1cccc(F)c1CNC(=O)[C@@]1(C)COc2c(oc3ccc(F)cc23)C(=O)N1CC(=O)N1CC[C@H]1CO [Example 117],51 to 500 nM
2,[2H]C([2H])([2H])Oc1ccccc1CNC(=O)C1(C)COc2c(oc3ccccc23)C(=O)N1CCOC (stereo not drawn) [Example 36],501 to 5000 nM
3,COCCN1C(=O)c2oc3ccccc3c2OCC1(C)C(=O)NCc1c(Cl)cc(F)cc1OC (stereo not drawn) [Example 48],501 to 5000 nM
4,"COc1cccc(F)c1CNC(=O)C1(C)COc2c(oc3ccc(C(F)(F)F)cc23)C(=O)N1CC(=O)N(C)C (stereo not drawn) [Example 131, 4-(2-(dimethylamino)-2-oxoethyl)-N-(2-fluoro-6-methoxybenzyl)-3-methyl-5-oxo-9-(trifluoromethyl)-2,3,4,5-tetrahydrobenzofuro[2,3-f][1,4]oxazepine-3-carboxamide]",51 to 500 nM
5,COc1cc(F)ccc1CNC(=O)C1(C)COc2c(oc3cc(C(=O)NC4(C)COC4)ccc23)C(=O)N1CC1CC1 (stereo not drawn) [Example 59],51 to 500 nM
6,COc1cccc(F)c1CNC(=O)C1(C)COc2c(oc3cc(C(=O)NC4(C)COC4)ccc23)C(=O)N1[C@H]1C[C@@H](OC)C1 (stereo partly drawn) [Example 68],51 to 500 nM
7,[2H]C([2H])([2H])N(C(=O)CN1C(=O)c2oc3ccc(Cl)cc3c2OC[C@]1(C)C(=O)NCc1ncccc1OC)C([2H])([2H])[2H] [Example 103],51 to 500 nM
8,COc1cccnc1CNC(=O)C1(C)COc2c(oc3cc(C(=O)NC4CCC4)ccc23)C(=O)N1[C@H]1C[C@@H](OC)C1 (stereo partly drawn) [Example 54],51 to 500 nM
9,COCCN1C(=O)c2oc3cc(C(=O)NC4CCC4)ccc3c2OCC1(C)C(=O)NCc1c(Cl)cccc1OC (stereo not drawn) [Example 88],≤ 50 nM
10,COCCN1C(=O)c2oc3cc(C(=O)NC4(C)COC4)ccc3c2OCC1(C)C(=O)NCc1c(OC)ccc(F)c1F (stereo not drawn) [Example 63],51 to 500 nM
11,COCCN1C(=O)c2oc3ccccc3c2OCC1(C)C(=O)NCc1ccc(Cl)cc1OC (stereo not drawn) [Example 25],501 to 5000 nM
12,"[2H]C([2H])([2H])N(C(=O)CN1C(=O)c2oc3ccc(Cl)cc3c2OC[C@]1(C)C(=O)NCc1c(F)cccc1OC)C([2H])([2H])[2H] [Example 102, (R)-4-(2-(bis(methyl-d3)amino)-2-oxoethyl)-9-chloro-N-(2-fluoro-6-methoxybenzyl)-3-methyl-5-oxo-2,3,4,5-tetrahydrobenzofuro[2,3-f][1,4]oxazepine-3-carboxamide]",51 to 500 nM
13,COCCN1C(=O)c2oc3ccccc3c2OC[C@]1(C)C(=O)NCc1ccccc1OC [Example 40],501 to 5000 nM
14,"COc1cccc(F)c1CNC(=O)C1(C)COc2c(oc3ccc(F)cc23)C(=O)N1CC(=O)N(C)C (stereo not drawn) [Example 112, 4-(2-(dimethylamino)-2-oxoethyl)-9-fluoro-N-(2-fluoro-6-methoxybenzyl)-3-methyl-5-oxo-2,3,4,5-tetrahydrobenzofuro[2,3-f][1,4]oxazepine-3-carboxamide]",51 to 500 nM
15,COCCN1C(=O)c2oc3ccccc3c2OCC1(C)C(=O)NCc1cc(Cl)c(F)cc1OC (stereo not drawn) [Example 29],501 to 5000 nM
16,COc1cccc(F)c1CNC(=O)C1(C)COc2c(oc3cc(C(=O)NC4CCC4)ccc23)C(=O)N1[C@H]1C[C@@H](OC)C1 (stereo partly drawn) [Example 91],≤ 50 nM
17,COCCN1C(=O)c2oc3cc(C(=O)NC4(C)COC4)cnc3c2OCC1(C)C(=O)NCc1c(Cl)cccc1OC (stereo not drawn) [Example 123],51 to 500 nM
18,COc1ccccc1CNC(=O)C1(C)COc2c(oc3ccccc23)C(=O)N1C1CCC1 (stereo not drawn) [Example 13],501 to 5000 nM
19,"COCCN1C(=O)c2oc3cc(C)ccc3c2OCC1(C)C(=O)NCc1ccccc1OC (stereo not drawn) [Example 95, N-(2-methoxybenzyl)-4-(2-methoxyethyl)-3,8-dimethyl-5-oxo-2,3,4,5-tetrahydrobenzofuro[2,3-f][1,4]oxazepine-3-carboxamide]",501 to 5000 nM
20,COCCN1C(=O)c2oc3ccccc3c2OCC1(C)C(=O)NCc1c(OC)ccc(Cl)c1F (stereo not drawn) [Example 46],501 to 5000 nM
21,[2H]C([2H])([2H])N(C(=O)CN1C(=O)c2oc3cc(-c4ncco4)ccc3c2OC[C@]1(C)C(=O)NCc1ncccc1OC)C([2H])([2H])[2H] [Example 127],≤ 50 nM
22,COc1cccnc1CNC(=O)[C@@]1(C)COc2c(oc3cc(-c4nc(C(F)(F)F)cs4)ccc23)C(=O)N1CC(=O)N(C)C [Example 128],≤ 50 nM
23,COCCN1C(=O)c2oc3ccccc3c2OCC1(C)C(=O)NCc1c(C#N)cccc1OC (stereo not drawn) [Example 28],501 to 5000 nM
24,COCCN1C(=O)c2oc3ccccc3c2OCC1(C)C(=O)NCc1ncccc1OC (stereo not drawn) [Example 47],501 to 5000 nM
25,COCCN1C(=O)c2oc3ccccc3c2OCC1(C)C(=O)NCc1ccc(C)cc1OC (stereo not drawn) [Example 43],501 to 5000 nM

# Same assay, conditions: Homo sapiens, Endothelial cell, Bioactivity of stereoisomers: R isomer; read-out: Bioactivity Bucket, R
row,SMILES,EC50
1,"COc1cccc(F)c1CNC(=O)[C@@]1(C)COc2c(oc3ccc(Cl)cc23)C(=O)N1CC(=O)N(C)C (single isomer, unassigned) [Example 107]",51 to 500 nM
2,"[2H]C([2H])([2H])N(C(=O)CN1C(=O)c2oc3ccc(Cl)cc3c2OC[C@]1(C)C(=O)NCc1c(F)cccc1OC)C([2H])([2H])[2H] [Example 102, (R)-4-(2-(bis(methyl-d3)amino)-2-oxoethyl)-9-chloro-N-(2-fluoro-6-methoxybenzyl)-3-methyl-5-oxo-2,3,4,5-tetrahydrobenzofuro[2,3-f][1,4]oxazepine-3-carboxamide]",51 to 500 nM
3,COCCN1C(=O)c2oc3ccccc3c2OC[C@]1(C)C(=O)NCc1ccccc1OC [Example 40],501 to 5000 nM

# Same assay, conditions: Homo sapiens, Endothelial cell, Bioactivity of stereoisomers: racemate; read-out: Bioactivity Bucket, Racemate
row,SMILES,EC50
1,CC=C1CC(N2C(=O)c3oc4ccccc4c3OCC2(C)C(=O)NCc2ccccc2OC)C1 (racemic) [Example 15],501 to 5000 nM
